The values that follow come from patent US20110105565A1, “WATER SOLUBLE SMALL MOLECULE INHIBITORS OF THE CYSTIC FIBROSIS TRANSMEMBRANE CONDUCTANCE REGULATOR” (THE REGENTS OF THE UNIVERSITY OF CALIFORNIA, priority 2008, published 2011).

The structures appear in SMILES notation. Where two headings read alike, the source gives them in different places.

For orientation: IC50 means the concentration needed to halve the response being measured.

The experiment concerns the target human wildtype CFTR (Homo sapiens, UniProt P13569). As to the kind of experiment: Fluorescence cell-based assay of CFTR inhibition (YFP iodide influx, FRT cells). Also on record: expressed in transfected cells; host or cells: Fisher rat thyroid (FRT) cells. The following applies: for CFTR inhibitory activity (in words): structure-activity discussion.
Where [1] appears, read: Table 1, upper part, CFTR inhibitory activity, given as ranges, read-out: IC50.
Setting [2] is: Table 2 summary table, given as ranges, read-out: IC50.
The mark [3] stands for this setting: Tables 1 and 2, read-out: IC50 (CFTR inhibition).
Where [4] appears, read: Table 1, lower parts, given as ranges, read-out: IC50.

human wildtype CFTR, sequence (P13569 whole entry): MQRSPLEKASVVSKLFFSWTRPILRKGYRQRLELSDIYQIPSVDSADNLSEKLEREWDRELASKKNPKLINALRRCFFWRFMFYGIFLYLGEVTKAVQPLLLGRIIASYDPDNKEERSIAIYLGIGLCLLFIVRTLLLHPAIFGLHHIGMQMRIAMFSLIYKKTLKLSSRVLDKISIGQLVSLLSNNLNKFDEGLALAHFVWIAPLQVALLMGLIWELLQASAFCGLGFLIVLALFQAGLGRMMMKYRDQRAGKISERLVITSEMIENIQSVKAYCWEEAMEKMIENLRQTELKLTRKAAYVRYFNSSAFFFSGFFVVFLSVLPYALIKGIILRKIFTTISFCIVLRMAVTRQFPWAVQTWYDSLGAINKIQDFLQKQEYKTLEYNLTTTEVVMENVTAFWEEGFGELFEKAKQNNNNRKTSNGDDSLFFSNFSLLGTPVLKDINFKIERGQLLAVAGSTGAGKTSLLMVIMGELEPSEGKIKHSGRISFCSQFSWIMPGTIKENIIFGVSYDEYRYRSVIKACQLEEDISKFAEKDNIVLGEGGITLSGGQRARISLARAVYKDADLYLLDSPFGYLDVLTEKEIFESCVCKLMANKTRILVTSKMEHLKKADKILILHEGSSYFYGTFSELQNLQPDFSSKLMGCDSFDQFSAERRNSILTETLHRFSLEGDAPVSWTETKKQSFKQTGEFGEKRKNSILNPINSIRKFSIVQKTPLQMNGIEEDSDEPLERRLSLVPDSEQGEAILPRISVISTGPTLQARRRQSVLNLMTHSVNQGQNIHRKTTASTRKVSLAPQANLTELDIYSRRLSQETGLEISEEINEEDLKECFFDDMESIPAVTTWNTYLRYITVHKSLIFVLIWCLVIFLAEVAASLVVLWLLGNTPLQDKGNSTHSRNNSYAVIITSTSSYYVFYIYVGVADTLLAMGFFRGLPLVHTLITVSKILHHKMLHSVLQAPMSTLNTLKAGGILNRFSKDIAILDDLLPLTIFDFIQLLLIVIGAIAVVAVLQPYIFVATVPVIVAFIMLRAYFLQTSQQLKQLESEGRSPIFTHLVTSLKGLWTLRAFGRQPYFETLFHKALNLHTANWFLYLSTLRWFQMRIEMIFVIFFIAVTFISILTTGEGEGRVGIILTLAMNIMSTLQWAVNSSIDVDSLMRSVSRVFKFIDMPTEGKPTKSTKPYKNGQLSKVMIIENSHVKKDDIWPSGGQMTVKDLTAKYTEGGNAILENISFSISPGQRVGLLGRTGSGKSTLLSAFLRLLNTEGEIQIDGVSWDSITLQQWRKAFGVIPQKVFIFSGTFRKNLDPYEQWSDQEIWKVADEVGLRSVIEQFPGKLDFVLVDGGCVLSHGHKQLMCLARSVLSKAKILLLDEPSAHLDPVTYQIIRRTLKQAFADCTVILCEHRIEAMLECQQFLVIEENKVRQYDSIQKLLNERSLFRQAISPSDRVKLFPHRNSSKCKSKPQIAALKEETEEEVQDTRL
Protocol: CFTR inhibition by thiazolidinone derivative compounds was determined by a fluorescence cell-based assay utilizing doubly transfected cells expressing human wild-type CFTR and a yellow fluorescent protein (YFP) iodide sensor, as described (see, e.g., Galietta, et al., J. Physiol. 281:C1734-C1742 (2001)). Fisher rat thyroid (FRT) cells stably expressing wild-type human CFTR and YFP-H148Q were cultured on 96-well black-wall plates as described (see, e.g., Ma, et al., J. Clin. Invest. 110:1651-1658 (2002)). Cells in 96-well plates were washed three times, and then CFTR was activated by incubation for 15 minutes with an activating cocktail containing 10 μM forskolin, 20 μM apigenin, and 100 μM IBMX. Test compounds were added 5 minutes before assay of iodide influx in which cells were exposed to a 100 mM inwardly directed iodide gradient. YFP fluorescence was recorded for 2 seconds before and 12 seconds after creation of the iodide gradient. Initial rates of iodide influx were computed from the time course of decreasing fluorescence after the iodide gradient.
CFTR-facilitated iodide influx following extracellular iodide addition results in quenching of cytoplasmic YFP fluorescence.

On to `O=C(O)c1ccc(/C=C2\SC(=S)N(c3ccc(C(F)(F)F)cc3)C2=O)cc1` [Compound 25, (Z)-4-((4-oxo-2-thioxo-3-(4-(trifluoromethyl)phenyl)thiazolidin-5-ylidene)methyl)benzoic acid], for which the concentration for half-maximal inhibition (IC50) is, setting by setting: under setting [1], 10 to 20 µM; under setting [2], 10 to 20 µM.

For the molecule `O=C1/C(=C/c2cc(O)c(O)c(O)c2)SC(=S)N1c1cccc(C(F)(F)F)c1` [Compound 19, (Z)-2-thioxo-3-(3-(trifluoromethyl)phenyl)-5-(3,4,5-trihydroxybenzylidene) thiazolidin-4-one], the “CFTR inhibitory activity (in words)” value is “low activity”. For the same molecule, under setting [1], the IC50 lay in the range of 10 to 20 µM. In addition, under setting [2], the IC50 was 10 to 20 µM.

Turning to `Cc1cccc(N2C(=O)/C(=C/c3ccc(C(=O)O)cc3)SC2=S)c1C` [Compound 13, (Z)-4-((3-(2,3-dimethylphenyl)-4-oxo-2-thioxothiazolidin-5-ylidene)methyl)benzoic acid], the IC50 was 5 to 10 µM under setting [1] and 5 to 10 µM under setting [2].

In the case of `O=C(O)c1cc(/C=C2\SC(=S)N(c3cccc(C(F)(F)F)c3)C2=O)ccc1O` [Compound 7, (Z)-2-hydroxy-5-((4-oxo-2-thioxo-3-(3-(trifluoromethyl)phenyl)thiazolidin-5-ylidene)methyl)benzoic acid], the IC50 is, setting by setting: under setting [1], 1 to 2 µM; under setting [2], 1 to 2 µM.

As for `O=C(O)c1ccc(/C=C2\SC(=S)N(c3ccccc3C(F)(F)F)C2=O)cc1` [Compound 20, (Z)-4-((4-oxo-2-thioxo-3-(2-(trifluoromethyl)phenyl)thiazolidin-5-ylidene)methyl)benzoic acid], the IC50 lay in the range of 10 to 20 µM under setting [1] and 10 to 20 µM under setting [2].

For `O=C(O)c1ccc(/C=C2\SC(=S)N(c3cccc(C(F)(F)F)c3)C2=O)c(O)c1` [Compound 16, (Z)-3-hydroxy-4-((4-oxo-2-thioxo-3-(3-(trifluoromethyl)phenyl)thiazolidin-5-ylidene)methyl)benzoic acid], the IC50 is 7 to 9 µM under setting [1] and 7 to 9 µM under setting [2].

As to `Cc1cccc(N2C(=O)/C(=C/c3ccc(C(=O)O)cc3)SC2=S)c1` [Compound 12, (Z)-4-((4-oxo-2-thioxo-3-m-tolylthiazolidin-5-ylidene)methyl)benzoic acid], the half-inhibitory concentration (IC50) under setting [1] was 5 to 10 µM and the 50% inhibitory concentration (IC50) under setting [2] was 5 to 10 µM.

Regarding `O=C(O)c1ccc(/C=C2\SC(=S)N(c3ccc(F)c(C(F)(F)F)c3)C2=O)cc1` [Compound 8, (Z)-4-((3-(4-fluoro-3-(trifluoromethyl)phenyl)-4-oxo-2-thioxothiazolidin-5 ylidene)methyl)benzoic acid], the IC50 under setting [1] fell in the range of 1 to 2 µM and the IC50 under setting [2] was in the range of 1 to 2 µM.

Turning to `O=C(O)c1ccc(CC2SC(=S)N(c3cccc(C(F)(F)F)c3)C2=O)cc1` (stereo not shown) [Compound 56], the “CFTR inhibitory activity (in words)” value was “inactive”.

As to `O=C(O)COc1ccc(/C=C2\SC(=S)N(c3cccc(C(F)(F)F)c3)C2=O)cc1` [Compound 10, (Z)-2-(4-((4-oxo-2-thioxo-3-(3-(trifluoromethyl)phenyl)thiazolidin-5-ylidene)methyl)phenoxy) acetic acid], the half-inhibitory concentration (IC50) was 2 to 3 µM under setting [1], 2 to 3 µM under setting [2] and 2.6 µM under setting [3].

With `O=C(O)c1cccc(/C=C2\SC(=S)N(c3cccc(C(F)(F)F)c3)C2=O)c1` [Compound 9, (Z)-3-((4-oxo-2-thioxo-3-(3-(trifluoromethyl)phenyl)thiazolidin-5-ylidene)methyl)benzoic acid], the IC50 is 1 to 2 µM under setting [1] and 1 to 2 µM under setting [2].

Consider `O=C(O)c1ccccc1/C=C1\SC(=S)N(c2ccccc2C(F)(F)F)C1=O` [Compound 27, (Z)-2-((4-oxo-2-thioxo-3-(2-(trifluoromethyl)phenyl)thiazolidin-5-ylidene)methyl)benzoic acid], for which the IC50 runs as follows: under setting [1], 10 to 20 µM; under setting [2], 10 to 20 µM.

`O=C(O)c1ccc(/C=C2\SC(=S)N(c3cc(C(F)(F)F)cc(C(F)(F)F)c3)C2=O)cc1` [Compound 23, (Z)-4-((3-(3,5-bis(trifluoromethyl)phenyl)-4-oxo-2-thioxothiazolidin-5-ylidene)methyl)benzoic acid]: the IC50 runs as follows: under setting [1], 10 to 20 µM; under setting [2], 10 to 20 µM.

In the case of `O=C(O)c1ccccc1/C=C1\SC(=S)N(c2cccc(C(F)(F)F)c2)C1=O` [Compound 26, (Z)-2-((4-oxo-2-thioxo-3-(3-(trifluoromethyl)phenyl)thiazolidin-5-ylidene)methyl)benzoic acid], the concentration for half-maximal inhibition (IC50) runs as follows: under setting [1], 10 to 20 µM; under setting [2], 10 to 20 µM.

For the molecule `O=C(O)c1ccccc1/C=C1\SC(=S)N(c2ccc(C(F)(F)F)cc2)C1=O` [Compound 29, (Z)-2-((4-oxo-2-thioxo-3-(4-(trifluoromethyl)phenyl)thiazolidin-5-ylidene)methyl)benzoic acid], the IC50 reads like this: under setting [1], 10 to 20 µM; under setting [2], 10 to 20 µM.

Consider `O=C(O)c1ccc(/C=C2\SC(=S)N(c3ccc(Cl)c(C(F)(F)F)c3)C2=O)cc1` [Compound 24, (Z)-4-((3-(4-chloro-3-(trifluoromethyl)phenyl)-4-oxo-2-thioxothiazolidin-5-ylidene)methyl)benzoic acid], for which the IC50 under setting [1] lay in the range of 10 to 20 µM and the half-maximal inhibitory concentration (IC50) under setting [2] lay in the range of 10 to 20 µM.

Regarding `O=C(O)c1ccc(NC(=S)C2SC(=S)N(c3cccc(C(F)(F)F)c3)C2=O)cc1` (stereo not shown) [Compound 51, 4-(4-oxo-2-thioxo-3-(3-(trifluoromethyl)phenyl)thiazolidine-5-carbothioamido)benzoic acid], the IC50 reads like this: under setting [4], 5 to 10 µM; under setting [2], 5 to 10 µM.

Consider `O=C(O)c1cccc(/C=C2\SC(=S)N(c3ccc(F)c(C(F)(F)F)c3)C2=O)c1` [Compound 11, (Z)-3-((3-(4-fluoro-3-(trifluoromethyl)phenyl)-4-oxo-2-thioxothiazolidin-5-ylidene)methyl)benzoic acid], for which the half-inhibitory concentration (IC50) fell in the range of 5 to 10 µM under setting [1] and 5 to 10 µM under setting [2].

For `O=C1S/C(=C\c2ccc(-c3nn[nH]n3)cc2)C(=O)N1c1cccc(C(F)(F)F)c1` [Compound 48, (Z)-5-(4-(1H-tetrazol-5-yl)benzylidene)-3-(3-(trifluoromethyl)phenyl) thiazolidine-2,4-dione], the IC50 by setting is: under setting [4], 10 to 20 µM; under setting [2], 10 to 20 µM.

With `O=C(O)c1cccc(/C=C2\SC(=S)N(c3ccccc3C(F)(F)F)C2=O)c1` [Compound 28, (Z)-3-((4-oxo-2-thioxo-3-(2-(trifluoromethyl)phenyl)thiazolidin-5-ylidene)methyl)benzoic acid], the IC50 by setting is: under setting [1], 10 to 20 µM; under setting [2], 10 to 20 µM.

`O=C(O)c1cc(/C=C2\SC(=S)N(c3ccc(C(F)(F)F)cc3)C2=O)ccc1O` [Compound 32, (Z)-2-hydroxy-5-((4-oxo-2-thioxo-3-(4-(trifluoromethyl)phenyl)thiazolidin-5-ylidene)methyl)benzoic acid]: the IC50 by setting is: under setting [1], 20 to 30 µM; under setting [2], 20 to 30 µM.

In the case of `O=C1/C(=C/c2ccc(O)cc2)SC(=S)N1c1cccc(C(F)(F)F)c1` [Compound 31, (Z)-5-(4-hydroxybenzylidene)-2-thioxo-3-(3-(trifluoromethyl)phenyl) thiazolidin-4-one], the “CFTR inhibitory activity (in words)” value is reported as “low activity”. Under setting [1], the IC50 is 20 to 30 µM. Further, under setting [2], the IC50 fell in the range of 20 to 30 µM.

With `O=C1/C(=C/c2ccncc2)SC(=S)N1c1cccc(C(F)(F)F)c1` [Compound 33, (Z)-5-(pyridin-4-ylmethylene)-2-thioxo-3-(3-(trifluoromethyl)phenyl) thiazolidin-4-one], the “CFTR inhibitory activity (in words)” value was “inactive”. Further, under setting [2], the half-inhibitory concentration (IC50) was 20 to 30 µM. In addition, the IC50 under setting [3] lay within 20 to 30 µM.

With `O=C(O)c1cccc(/C=C2\SC(=S)N(c3ccc(C(F)(F)F)cc3)C2=O)c1` [Compound 21, (Z)-3-((4-oxo-2-thioxo-3-(4-(trifluoromethyl)phenyl)thiazolidin-5-ylidene)methyl)benzoic acid], the IC50 runs as follows: under setting [1], 10 to 20 µM; under setting [2], 10 to 20 µM.

Consider `O=C1/C(=C/c2cc(Br)c(O)c(Br)c2)SC(=S)N1c1cccc(C(F)(F)F)c1` [Compound 14, (Z)-5-(3,5-dibromo-4-hydroxybenzylidene)-2-thioxo-3-(3-(trifluoromethyl)phenyl) thiazolidin-4-one], for which the “CFTR inhibitory activity (in words)” value is given as “modest inhibition activity”. For the same molecule, the IC50 under setting [1] was 5 to 10 µM. Moreover, the IC50 under setting [2] lay in the range of 5 to 10 µM.

For `O=C1/C(=C/c2ccc(S(=O)(=O)[O-])cc2)SC(=S)N1c1cccc(C(F)(F)F)c1.[Na+]` [Compound 35, sodium (Z)-4-((4-oxo-2-thioxo-3-(3-(trifluoromethyl)phenyl)thiazolidin-5-ylidene)methyl) benzenesulfonate], the “CFTR inhibitory activity (in words)” value is “inactive”. In addition, the IC50 under setting [1] fell in the range of 20 to 30 µM. Under setting [2], the IC50 is 20 to 30 µM.

On to `O=C(O)c1cc(/C=C2\SC(=S)N(c3ccccc3C(F)(F)F)C2=O)ccc1O` [Compound 22, (Z)-2-hydroxy-5-((4-oxo-2-thioxo-3-(2-(trifluoromethyl)phenyl)thiazolidin-5-ylidene)methyl)benzoic acid], for which the IC50 under setting [1] was in the range of 10 to 20 µM and the IC50 under setting [2] is 10 to 20 µM.

For the molecule `O=C(O)c1ccc(SC2CC(=O)N(c3cccc(C(F)(F)F)c3)C2=O)cc1` (stereo not shown) [Compound 50, 4-(2,5-dioxo-1-(3-(trifluoromethyl)phenyl)pyrrolidin-3-ylthio)benzoic acid], the half-inhibitory concentration (IC50) was 5 to 10 µM under setting [4], 5 to 10 µM under setting [2] and approximately 7 µM under setting [3].

Regarding `O=C(O)COc1cccc(/C=C2\SC(=S)N(c3cccc(C(F)(F)F)c3)C2=O)c1` [Compound 36, (Z)-2-(3-((4-oxo-2-thioxo-3-(3-(trifluoromethyl)phenyl)thiazolidin-5-ylidene)methyl)phenoxy) acetic acid], the half-inhibitory concentration (IC50) under setting [1] is 20 to 30 µM and the IC50 under setting [2] was in the range of 20 to 30 µM.

`O=C1/C(=C/c2ccc(O)c(O)c2O)SC(=S)N1c1cccc(C(F)(F)F)c1` [Compound 34, (Z)-2-thioxo-3-(3-(trifluoromethyl)phenyl)-5-(2,3,4-trihydroxybenzylidene) thiazolidin-4-one]: the “CFTR inhibitory activity (in words)” value is listed as “low activity”. In addition, the half-maximal inhibitory concentration (IC50) under setting [1] fell in the range of 20 to 30 µM. In addition, under setting [2], the IC50 is 20 to 30 µM.
